Series [1] concerns acute hepatocirrhosis hyperammnonemia rat model. The series can be described thus: Coma and death caused by acute hepatocirrhosis in rats (in oral). Type of series: in vivo, SD rats. The note with it: Table 10; Cryptotanshinone oral 100 mg/kg; tetrachloro-methane peanut oil; 8.5 mmol/kg acetamide i.p. on 4th day. How it is done:
The time from acetamide injection to coma (latent period), from coma to awakening (coma time) and death rate in rats was recorded.

The subject of series [2] is healthy male mice. The experiment in a line: Acute toxicity test in mouse. An excerpt: Acute toxicity test in mouse: The animals used in this study were healthy male mice. The drug was administrated intragastrically for 7 days once daily.
In series [3] the test system is healthy male mice. The experiment in a line: 30 days toxicity test in mouse. It is filed as in vivo. The note with it: intragastric, 200 mg/kg day. How it is done:
The drug was continually administrated intragastrically for 30 days with dose of 200 mg/kg day.

The test system of series [4] is hyperammonemia rats. The experiment in a line: Blood ammonia reducing experiment (in oral), acetamide-treated rats. It is filed as in vivo, SD rats. The protocol:
In the 4th day, 30 min after the acetamide injection, blood samples of the rats in each group were collected by eyeball removing method immediately, and processed with the anticoagulant EDTA-Na, then the blood ammonia concentration was determined.
(§1) With the same experiment method, 90 min after the acetamide injection at the 4th day, blood samples of the rats in each group were collected by eyeball removing method immediately, and processed with the anticoagulant EDTA-Na, then the blood ammonia concentration was determined.

Series [5] deals with acute hepatocirrhosis hyperammnonemia rat model. The series can be described thus: Coma and death caused by acute hepatocirrhosis in rats (in injection). Type of series: in vivo, SD rats. Conditions: Table 9; i.p. 4 days, Cryptotanshinone 10 mg/kg, sodium glutamate 410 mg/kg; tetrachloro-methane peanut oil; 8.5 mmol/kg acetamide i.p. on 4th day. The protocol:
The animals used in this experiment were 40 healthy male SD rats weighing 250-300 g. They were randomly divided into 4 groups, that is, group of normal control, experimental control (acetamide group), sodium glutamate/acetamide group, and Cryptotanshinone/acetamide group. The rats in all those groups except the normal control group were injected intraperitoneally with saline, sodium glutamate injection (with a dose of 410 mg/kg), and saline solution of Cryptotanshinone (containing small amount of surface active agent, with a dose of 10 mg/kg) respectively. 45 min after the injection, the rats in all those groups except the normal control group were injected intraperitoneally with peanut oil containing 0.1% tetrachloro-methane. Above injections continued for 4 days. In the 4th day, 45 min after the tetrachloride peanut oil injection, the rats in each group (including the normal control group) were injected intraperitoneally with 8.5 mmol/kg acetamide solution. The time from acetamide injection to coma (latent period), from coma to awakening (coma time) and death rate in rats was recorded.

The test system of series [6] is hyperammonemia rats. The experiment in a line: Blood ammonia reducing experiment (in injection), acetamide-treated rats. The note with it: for Blood ammonia concentration / Reduction rate: i.p. for 4 days, sodium glutamate 410 mg/kg. It is filed as in vivo, SD rats. How it is done:
The animals used in this experiment were 50 healthy male SD rats weighing 250-300 g. They were randomly divided into 5 groups, that is, group of normal control, experimental control (acetamide group), sodium glutamate/acetamide group, Dihydortanshinone I/acetamide group and tanshinone IIA/acetamide group. The rats in all those groups except the normal control group were injected intraperitoneally with saline, sodium glutamate injection (with a dose of 410 mg/kg), saline solution of Dihydortanshinone I (containing small amount of surface active agent, with a dose of 10 mg/kg), saline solution of tanshinone IIA (containing small amount of surface active agent, with a dose of 10 mg/kg) respectively. 45 min after the injection, the rats in all those groups except control group were injected intraperitoneally with 5.5 mmol/kg acetamide. Above injections continued for 4 days. In the 4th day, 30 min after the acetamide injection, blood samples of the rats in each group were collected by eyeball removing method immediately, and processed with the anticoagulant EDTA-Na, then the blood ammonia concentration was determined using conventional method. […] The dose of […] in this example and following examples was settled with the reference of its actual clinical dose. The method for determining the blood ammonia concentration in this example and following examples was enzyme-UV method, the instrument used was HITACHI-7170 automatic analyzer, and the kit used was AMMONIA kit.
as §1
The animals used in this experiment were 40 healthy male SD rats weighing 250-300 g. They were randomly divided into 4 groups, that is, normal control group, experimental control group (acetamide group), sodium glutamate/acetamide group, and Cryptotanshinone/acetamide group. The rats in all those groups except the normal control group were injected intraperitoneally with saline, sodium glutamate injection (with a dose of 410 mg/kg), and saline solution of Cryptotanshinone (containing small amount of surface active agent, with a dose of 10 mg/kg) respectively. 45 min after the injection, the rats in all those groups except the normal control group were injected intraperitoneally with 5.5 mmol/kg acetamide. Above injections continued for 4 days. In the 4th day, 30 min after the acetamide injection, blood samples of the rats in each group were collected by eyeball removing method immediately, and processed with the anticoagulant EDTA-Na, then the blood ammonia concentration was determined.

Where [7] appears, read: Table 7, Cryptotanshinone in oral (intragastric 100 mg/kg), blood 30 min after acetamide on 4th day.
Setting [8] is: Table 8, Cryptotanshinone in oral (intragastric 100 mg/kg), blood 90 min after acetamide on 4th day.
The mark [9] stands for this setting: Table 3, Cryptotanshinone 10 mg/kg, blood 30 min after acetamide on 4th day.
Setting [10] is: Table 4, Cryptotanshinone 10 mg/kg, blood 90 min after acetamide on 4th day.
Setting [11] is: Table 5, tanshinones intragastric 100 mg/kg, acetamide 120 min later, blood 30 min after acetamide on 4th day.
[12] abbreviates: Table 6, tanshinones intragastric 100 mg/kg, blood 90 min after acetamide on 4th day.
Where [13] appears, read: Table 1, tanshinones 10 mg/kg, blood 30 min after 5.5 mmol/kg acetamide on 4th day.
Where [14] appears, read: Table 1, tanshinones 10 mg/kg, blood 30 min after acetamide on 4th day.
Setting [15] is: Table 2, tanshinones 10 mg/kg, blood 90 min after acetamide on 4th day.

We go through four compounds from patent publication US20040024056A1, “Dihydrofuran cyclic tanshinones used in treating hyperammonemia and hepatic encephalopathy” (priority 2001, published 2004).

A value given as a limit tells only on which side of the number the result lay.

Take `C[C@H]1COC2=C1C(=O)C(=O)c1c2ccc2c1CCCC2(C)C` [Cryptotanshinone, 1,6,6-trimethyl-1,2,6,7,8,9-hexahydrophenanthrene[1,2-b]furan-10,11-dione]: in series [1], the “Coma time (from coma to awakening)” value is recorded as 75 min, the “Latent period (time from acetamide injection to coma)” value (shortened to “Latent period”) came out at 12 min and the Mortality worked out at 20%. Besides, in the series on healthy male mice [2] (mice, intragastric, once daily for 7 days), the LD50 (as a rule, the dose at which mortality reaches 50%) was above 1500 mg/kg. Moreover, in the series on healthy male mice [2] (mice, intragastric, once daily for 7 days, dose up to 1.5 g/kg), the “Toxic symptom or death” value is “no toxic symptom or death”. The “Toxicity, overall conclusion” value with healthy male mice [2] (summary statement) is reported as “safe to use as drug in normal dosage”. For the same compound, in the series with healthy male mice [3], the Death of mice entry was “no death of mice manifested”; the “Growth and development, hematopoietic function, biochemical index” value is on record as “no apparent abnormal change or toxic reaction”; the “Pathology of major organs (anatomical and tissue microscopy inspection)” value was “No pathology change of major organs”. In the series on hyperammonemia rats [4] (setting [7]), this compound returned a Blood ammonia concentration of 470 µmol/L and a Reduction rate of 54%. In the series on hyperammonemia rats [4] (setting [8]), the Blood ammonia concentration was 120 µmol/L and the Reduction rate was found to be 97%. Further, in series [5], the “Coma time (from coma to awakening)” value came to 65 min, the “Latent period” value was found to be 12 min and the Mortality was 20%. In the series with hyperammonemia rats [6] (setting [9]), the Blood ammonia concentration was 420 µmol/L and the Reduction rate turned out to be 60%. In the series on hyperammonemia rats [6] (setting [10]), this compound displayed a Blood ammonia concentration of 110 µmol/L and a Reduction rate of 100%.

Consider `N[C@@H](CCC(=O)[O-])C(=O)[O-].[Na+].[Na+]` [Sodium Glutamate], for which the “Coma time (from coma to awakening)” value in series [1] turned out to be 90 min; in series [5], 75 min. In addition, the figures for the “Latent period” value in series [1] and in series [5] were 9 min and 11 min, respectively. The Mortality in series [1] and in series [5] was 50% in each case. The Blood ammonia concentration was 510 µmol/L in the series with hyperammonemia rats [4] (setting [11]); 130 µmol/L with hyperammonemia rats [4] (setting [12]); 510 µmol/L with hyperammonemia rats [4] (setting [7]); 130 µmol/L with hyperammonemia rats [4] (setting [8]); 480 µmol/L in the series on hyperammonemia rats [6] (setting [13]); 120 µmol/L in the series on hyperammonemia rats [6] (setting [15]). The Blood ammonia concentration was 480 µmol/L in the series on hyperammonemia rats [6] (setting [9]) and 110 µmol/L in the series with hyperammonemia rats [6] (setting [10]). In addition, the Reduction rate in the series on hyperammonemia rats [4] (setting [11]) came out at 49%; in the series with hyperammonemia rats [4] (setting [12]), 91%; in the series with hyperammonemia rats [4] (setting [7]) it was 49%; with hyperammonemia rats [4] (setting [8]), 91%; in the series with hyperammonemia rats [6] (setting [14]) it was 53%; in the series on hyperammonemia rats [6] (setting [15]) it was 97%. Moreover, the figures for the Reduction rate in the series on hyperammonemia rats [6] (setting [9]) and in the series on hyperammonemia rats [6] (setting [10]) were 53% and 100%, respectively.

For `Cc1coc2c1C(=O)C(=O)c1c-2ccc2c1CCCC2(C)C` [Tanshinone IIA], the Blood ammonia concentration worked out at 865 µmol/L with hyperammonemia rats [4] (setting [11]), 270 µmol/L in the series on hyperammonemia rats [4] (setting [12]), 850 µmol/L in the series on hyperammonemia rats [6] (setting [13]) and 265 µmol/L in the series on hyperammonemia rats [6] (setting [15]). In addition, the Reduction rate is given as below 4% in the series with hyperammonemia rats [4] (setting [11]), below 10% in the series with hyperammonemia rats [4] (setting [12]), below 5% in the series with hyperammonemia rats [6] (setting [14]) and below 12% in the series with hyperammonemia rats [6] (setting [15]). In addition, the “Function to reduce the blood ammonia concentration” value in the series on hyperammonemia rats [6] (hyperammonemia animal model, summary statement) is “have no such function”.

In the case of `Cc1cccc2c3c(ccc12)C1=C(C(=O)C3=O)C(C)CO1` (centres unmarked) [Dihydortanshinone I, 1,6-dimethyl-1,2-dihydrophenanthrene[1,2-b]furan-10,11-dione], the Blood ammonia concentration worked out at 550 µmol/L with hyperammonemia rats [4] (setting [11]), 135 µmol/L in the series with hyperammonemia rats [4] (setting [12]), 490 µmol/L in the series with hyperammonemia rats [6] (setting [13]) and 125 µmol/L with hyperammonemia rats [6] (setting [15]). In addition, the Reduction rate is 44% with hyperammonemia rats [4] (setting [11]), 89% in the series with hyperammonemia rats [4] (setting [12]), 51% with hyperammonemia rats [6] (setting [14]) and 96% in the series on hyperammonemia rats [6] (setting [15]).
